This is an account of results in patent US10106539B2, “Spiro-indolines for the treatment and prophylaxis of respiratory syncytial virus infection (RSV)” (REVIRAL LIMITED, priority 2014, dated 2018).

The structures appear in SMILES notation. Where two headings read alike, the source gives them in different places.

What all share (assay type): in vitro ADME
Data set [1] in a line: Liver microsomal stability, human. The following applies: both sexes, pH 7.4, human liver microsomes. The procedure:
(§1) Microsomal Incubation: Experimental Procedure
(§2) Pooled human liver microsomes (pooled male and female), pooled rat liver microsomes (male Sprague Dawley rats) and pooled dog liver microsomes (male Beagle dog) are purchased from a reputable commercial supplier and stored at −80° C. prior to use.
Microsomes (final protein concentration 0.5 mg/mL), 0.1 M phosphate buffer pH 7.4 and test compound (final substrate concentration 3 μM; final DMSO concentration 0.25%) are pre-incubated at 37° C. prior to the addition of NADPH (final concentration 1 mM) to initiate the reaction. The final incubation volume is 50 μL. A control incubation is included for each compound tested where 0.1 M phosphate buffer pH 7.4 is added instead of NADPH (minus NADPH). Two control compounds are included with each species. All incubations are performed singularly for each test compound.
Compounds are incubated for 0, 5, 15, 30 and 45 min. The control (minus NADPH) is incubated for 45 min only. The reactions are stopped by transferring 25 μL of incubate to 50 μL methanol at the appropriate time points. The termination plates are centrifuged at 2,500 rpm for 20 min at 4° C. to precipitate the protein. Following protein precipitation, the sample supernatants are combined in cassettes of up to 4 compounds, internal standard is added and samples analysed by LC-MS/MS. From a plot of ln peak area ratio (compound peak area/internal standard peak area) against time, the gradient of the line is determined. Subsequently, half-life and intrinsic clearance are calculated
Background: Liver microsomes are a subcellular fraction often used to study metabolism.

The nature of data set [2]: Liver microsomal stability, rat. The following applies: male, Sprague Dawley. How it is done: as §1, §2
The final incubation volume is 50 μL. A control incubation is included for each compound tested where 0.1 M phosphate buffer pH 7.4 is added instead of NADPH (minus NADPH). Two control compounds are included with each species. All incubations are performed singularly for each test compound.
The reactions are stopped by transferring 25 μL of incubate to 50 μL methanol at the appropriate time points. The termination plates are centrifuged at 2,500 rpm for 20 min at 4° C. to precipitate the protein. Following protein precipitation, the sample supernatants are combined in cassettes of up to 4 compounds, internal standard is added and samples analysed by LC-MS/MS. From a plot of ln peak area ratio (compound peak area/internal standard peak area) against time, the gradient of the line is determined. Subsequently, half-life and intrinsic clearance are calculated

The subject of another data set is human P-gp (MDR1). Briefly: MDR1-MDCK permeability. The following applies: dog. How it is done: MDR1-MDCK Permeability: Experimental Procedure
MDR1-MDCK cells obtained from the NIH (Rockville, Md., USA) are used between passage numbers 6-30. Cells are seeded onto Millipore Multiscreen Transwell plates at 3.4×10^5 cells/cm2. The cells are cultured in DMEM and media is changed on day 3. On day 4 the permeability study is performed. Cell culture and assay incubations are carried out at 37° C. in an atmosphere of 5% CO2 with a relative humidity of 95%. On the day of the assay, the monolayers are prepared by rinsing both basolateral and apical surfaces twice with Hanks Balanced Salt Solution (HBSS) at the desired pH warmed to 37° C. Cells are then incubated with HBSS at the desired pH in both apical and basolateral compartments for 40 min to stabilise physiological parameters.
The dosing solutions are prepared by diluting test compound with assay buffer to give a final test compound concentration of 10 μM (final DMSO concentration of 1% v/v). The fluorescent integrity marker lucifer yellow is also included in the dosing solution. Analytical standards are prepared from test compound DMSO dilutions and transferred to buffer, maintaining a 1% v/v DMSO concentration.
For assessment of A-B permeability, HBSS is removed from the apical compartment and replaced with test compound dosing solution. The apical compartment insert is then placed into a companion plate containing fresh buffer (containing 1% v/v DMSO). For assessment of B-A permeability, HBSS is removed from the companion plate and replaced with test compound dosing solution. Fresh buffer (containing 1% v/v DMSO) is added to the apical compartment insert, which is then placed into the companion plate.
At 60 min the apical compartment inserts and the companion plates are separated and apical and basolateral samples diluted for analysis.
Test compound permeability is assessed in duplicate. Compounds of known permeability characteristics are run as controls on each assay plate.
Test and control compounds are quantified by LC-MS/MS cassette analysis using an 8-point calibration with appropriate dilution of the samples. The starting concentration (C0) is determined from the dosing solution and the experimental recovery calculated from C0 and both apical and basolateral compartment concentrations.
The integrity of the monolayer throughout the experiment is checked by monitoring lucifer yellow permeation using fluorimetric analysis. Lucifer yellow permeation is high if monolayers have been damaged.

A short description of data set [3]: Plasma protein binding (equilibrium dialysis), dog. The following applies: plasma (100%). How it is done: Protein Binding Determination: Experimental Procedure
Solutions of test compound (5 μM, 0.5% final DMSO concentration) are prepared in buffer (pH 7.4) and 100% species-specific plasma. The experiment is performed using equilibrium dialysis with the two compartments separated by a semi-permeable membrane. The buffer solution is added to one side of the membrane and the plasma solution to the other side. After equilibration, samples are taken from both sides of the membrane. Standards are prepared in plasma and buffer and are incubated at 37° C.
Test compound incubations are performed in duplicate. A control compound is included in each experiment.
The solutions for each batch of compounds are combined into two groups (protein-free and protein-containing), then cassette analysed by LC-MS/MS using two sets of calibration standards for protein-free (7 points) and protein-containing solutions (6 points).

For the compound `CC(C)CCn1c(CN2C(=O)C3(CC3)c3ccccc32)nc2cc(CN)ccc21` [RV039, 1′-((5-(aminomethyl)-1-isopentyl-1H-benzo[d]imidazol-2-yl)methyl)spiro[cyclopropane-1,3′-indolin]-2′-one, reference compound], the half-life at 3 μM in data set [1] (Comparative Example 2, read-out: Liver Microsomal Stability T1/2, human (Table 5)) amounted to 5 min. Besides, the half-life at 3 μM in data set [2] (pooled liver microsomes, pH 7.4, Comparative Example 2, read-out: Liver Microsomal Stability T1/2, rat (Table 5)) was > 95 min. In the data set with human P-gp (MDR1), this compound registered a Papp A→B at 60 min, 10 μM of 0.42 ×10⁻⁶ cm/s and a basolateral-to-apical permeability (Papp B→A) at 60 min, 10 μM of 49 ×10⁻⁶ cm/s. In addition, the fraction unbound at 5 μM in data set [3] (pH 7.4, Comparative Example 2, read-out: PPB fraction unbound, dog (Table 5)) is 0.1.

For the compound `NCc1ccc2c(c1)nc(CN1C(=O)C3(CC3)c3ccc(F)cc31)n2CCCC(F)(F)F` [Example 1, 1′-{[5-(Aminomethyl)-1-(4,4,4-trifluorobutyl)-1H-1,3-benzodiazol-2-yl]methyl}-6′-fluoro-1′,2′-dihydrospiro[cyclopropane-1,3′-indole]-2′-one], the half-life at 3 μM in data set [1] (3 μM compound, read-out: Liver Microsomal Stability T1/2, human) was determined as 32 min; in data set [2] (pH 7.4, rat liver microsomes, 3 μM compound, read-out: Liver Microsomal Stability T1/2, rat), 80 min. Further, the apparent permeability from apical to basolateral (Papp A→B) at 60 min, 10 μM in the data set on human P-gp (MDR1) (A-B, 10 μM, 60 min, read-out: Permeability (Human Pgp transfected) MDCK Papp A-B) stood at 0.5 ×10⁻⁶ cm/s. For the same compound, the Papp B→A at 60 min, 10 μM in the data set on human P-gp (MDR1) (B-A, 10 μM, 60 min, read-out: Permeability (Human Pgp transfected) MDCK Papp B-A) worked out at 73 ×10⁻⁶ cm/s. Further, the fraction unbound at 5 μM in data set [3] (pH 7.4, 5 μM, read-out: PPB fraction unbound, dog) came to 0.27.

In general, Papp A→B refers to how fast a substance crosses the layer from the apical side. The Papp B→A is the apparent permeability from the basolateral to the apical side of a cell layer. By fraction unbound is commonly meant free concentration divided by total concentration.
